In ChEMBL document CHEMBL5465560, “Selectivity Literature for EUbOPEN Chemogenomic Library” (2024) one finds % of inhibition and % of control data, which are given here for six molecules.

Assay [1] addresses Homeodomain-interacting protein kinase 2 (Homo sapiens, UniProt Q9H2X6). Put plainly: Selectivity interaction (Upstate Kinase Profiler service (Millipore)) EUB0000056c HIPK2. As to conditions: at 1 µM.
In assay [2] the target is Hepatocyte growth factor-like protein (Homo sapiens) (UniProt P26927). Particulars: at 1 µM.
Assay [3] has as its target T1, Serine/threonine-protein kinase Sgk3 (Homo sapiens) (UniProt Q96BR1).
T1 sequence (whole entry): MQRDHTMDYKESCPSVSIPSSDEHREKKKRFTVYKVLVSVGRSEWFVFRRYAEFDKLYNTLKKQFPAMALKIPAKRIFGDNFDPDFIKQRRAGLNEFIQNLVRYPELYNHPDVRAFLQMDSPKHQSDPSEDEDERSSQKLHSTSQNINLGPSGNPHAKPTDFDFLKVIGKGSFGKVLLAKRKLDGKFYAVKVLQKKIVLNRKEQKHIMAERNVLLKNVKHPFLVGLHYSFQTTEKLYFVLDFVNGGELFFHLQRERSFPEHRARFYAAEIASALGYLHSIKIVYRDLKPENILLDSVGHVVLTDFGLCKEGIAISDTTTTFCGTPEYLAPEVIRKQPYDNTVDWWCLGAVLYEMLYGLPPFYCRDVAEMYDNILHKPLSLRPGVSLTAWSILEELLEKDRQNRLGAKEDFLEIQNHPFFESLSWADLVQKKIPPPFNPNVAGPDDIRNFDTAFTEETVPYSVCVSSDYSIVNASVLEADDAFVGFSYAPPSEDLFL
Particulars: at 10 µM.

Assay [4] addresses 5'-AMP-activated protein kinase catalytic subunit alpha-2 (Homo sapiens) (UniProt P54646). Briefly: Selectivity interaction (Ambit KINOMEscan and KiNATiv profiling in Jurkat cells) EUB0000090b PRKAA2. It is filed as cell-based. As to conditions: at 1 µM.
For assay [5], the target named is T2, Rhodopsin kinase GRK7 (Homo sapiens) (UniProt Q8WTQ7).
T2 sequence (whole entry): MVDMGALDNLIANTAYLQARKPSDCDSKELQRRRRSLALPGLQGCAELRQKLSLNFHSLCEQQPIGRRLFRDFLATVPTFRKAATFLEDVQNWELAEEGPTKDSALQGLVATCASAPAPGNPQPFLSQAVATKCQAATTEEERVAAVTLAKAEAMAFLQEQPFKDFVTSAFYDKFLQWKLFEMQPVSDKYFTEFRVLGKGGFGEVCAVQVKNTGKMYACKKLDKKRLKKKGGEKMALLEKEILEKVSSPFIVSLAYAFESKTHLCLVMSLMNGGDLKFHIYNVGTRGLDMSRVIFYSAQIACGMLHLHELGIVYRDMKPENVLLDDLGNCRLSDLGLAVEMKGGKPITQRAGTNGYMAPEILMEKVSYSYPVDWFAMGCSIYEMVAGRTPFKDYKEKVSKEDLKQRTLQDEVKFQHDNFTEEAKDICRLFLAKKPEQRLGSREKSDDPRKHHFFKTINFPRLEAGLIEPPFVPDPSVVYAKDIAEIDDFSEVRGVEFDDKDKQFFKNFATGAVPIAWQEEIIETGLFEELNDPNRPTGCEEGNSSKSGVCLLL
Briefly: Selectivity interaction (Kinase panel (Z-LYTE Assay)) EUB0001632a GRK7. As to conditions: at 10 µM.

Assay [6] concerns the target Citron Rho-interacting kinase (Homo sapiens) (UniProt O14578). Briefly: Selectivity interaction (KinomeScan (DiscoverX)) EUB0000595a CIT. Particulars: at 10 µM.
For assay [7], the target named is T3, Serine/threonine-protein kinase TNNI3K (Homo sapiens) (UniProt Q59H18).
T3 sequence (whole entry): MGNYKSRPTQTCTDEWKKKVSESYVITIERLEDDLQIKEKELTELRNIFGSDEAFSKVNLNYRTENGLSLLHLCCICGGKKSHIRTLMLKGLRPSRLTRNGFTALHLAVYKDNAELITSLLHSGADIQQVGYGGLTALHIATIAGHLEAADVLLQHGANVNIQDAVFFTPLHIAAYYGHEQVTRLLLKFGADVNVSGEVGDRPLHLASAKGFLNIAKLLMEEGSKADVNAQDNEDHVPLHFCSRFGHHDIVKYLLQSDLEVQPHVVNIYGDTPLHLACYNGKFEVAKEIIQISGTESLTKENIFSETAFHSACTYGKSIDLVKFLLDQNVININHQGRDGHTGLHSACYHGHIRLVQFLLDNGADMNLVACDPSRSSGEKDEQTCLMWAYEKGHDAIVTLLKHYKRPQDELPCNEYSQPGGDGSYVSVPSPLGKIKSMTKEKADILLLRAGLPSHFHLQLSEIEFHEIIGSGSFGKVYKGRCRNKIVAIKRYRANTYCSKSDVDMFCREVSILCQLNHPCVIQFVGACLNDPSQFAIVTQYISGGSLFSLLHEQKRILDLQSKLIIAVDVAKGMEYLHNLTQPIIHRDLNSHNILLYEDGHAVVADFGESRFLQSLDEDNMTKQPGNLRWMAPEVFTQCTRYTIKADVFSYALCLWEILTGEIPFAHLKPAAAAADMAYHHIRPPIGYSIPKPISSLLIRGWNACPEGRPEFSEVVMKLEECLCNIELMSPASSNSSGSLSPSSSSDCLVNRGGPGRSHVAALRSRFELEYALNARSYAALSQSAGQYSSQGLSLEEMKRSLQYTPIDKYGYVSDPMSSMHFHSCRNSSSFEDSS
Briefly: Selectivity interaction (KinomeScan (DiscoverX)) EUB0000618a TNNI3K. As to conditions: at 10 µM.

Chain of Homeodomain-interacting protein kinase 2 (Q9H2X6 whole entry, looked up): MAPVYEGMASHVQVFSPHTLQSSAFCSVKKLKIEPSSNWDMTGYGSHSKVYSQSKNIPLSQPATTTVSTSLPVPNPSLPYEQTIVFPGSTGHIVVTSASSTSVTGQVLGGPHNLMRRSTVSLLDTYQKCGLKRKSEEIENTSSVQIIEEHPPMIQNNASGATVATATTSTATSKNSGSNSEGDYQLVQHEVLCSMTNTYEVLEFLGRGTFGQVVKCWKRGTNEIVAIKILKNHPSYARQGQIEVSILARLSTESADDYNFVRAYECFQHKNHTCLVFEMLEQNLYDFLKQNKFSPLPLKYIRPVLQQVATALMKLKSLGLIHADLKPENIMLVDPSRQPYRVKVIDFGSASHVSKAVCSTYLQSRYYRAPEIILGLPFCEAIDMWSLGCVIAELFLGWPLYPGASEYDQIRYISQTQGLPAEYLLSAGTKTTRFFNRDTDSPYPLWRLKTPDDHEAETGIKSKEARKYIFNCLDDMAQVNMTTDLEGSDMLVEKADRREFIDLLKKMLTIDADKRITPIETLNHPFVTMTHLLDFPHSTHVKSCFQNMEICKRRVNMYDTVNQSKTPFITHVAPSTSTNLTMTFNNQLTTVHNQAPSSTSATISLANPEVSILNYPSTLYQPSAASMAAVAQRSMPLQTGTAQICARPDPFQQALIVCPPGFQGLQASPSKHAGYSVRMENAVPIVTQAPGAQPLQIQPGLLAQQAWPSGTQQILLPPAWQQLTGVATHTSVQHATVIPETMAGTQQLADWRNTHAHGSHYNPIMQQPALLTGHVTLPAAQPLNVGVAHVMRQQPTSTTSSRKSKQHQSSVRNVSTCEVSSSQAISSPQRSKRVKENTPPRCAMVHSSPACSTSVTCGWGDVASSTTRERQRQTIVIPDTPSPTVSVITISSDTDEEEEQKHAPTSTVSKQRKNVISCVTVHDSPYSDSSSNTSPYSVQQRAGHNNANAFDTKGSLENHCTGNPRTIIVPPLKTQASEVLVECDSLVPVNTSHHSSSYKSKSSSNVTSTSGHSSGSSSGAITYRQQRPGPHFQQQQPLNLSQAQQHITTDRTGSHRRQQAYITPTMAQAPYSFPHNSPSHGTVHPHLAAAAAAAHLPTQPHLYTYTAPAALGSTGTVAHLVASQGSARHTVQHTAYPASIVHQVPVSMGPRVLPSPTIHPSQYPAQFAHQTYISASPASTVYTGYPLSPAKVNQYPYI
Chain of 5'-AMP-activated protein kinase catalytic subunit alpha-2 (Homo sapiens) (P54646 whole entry, looked up): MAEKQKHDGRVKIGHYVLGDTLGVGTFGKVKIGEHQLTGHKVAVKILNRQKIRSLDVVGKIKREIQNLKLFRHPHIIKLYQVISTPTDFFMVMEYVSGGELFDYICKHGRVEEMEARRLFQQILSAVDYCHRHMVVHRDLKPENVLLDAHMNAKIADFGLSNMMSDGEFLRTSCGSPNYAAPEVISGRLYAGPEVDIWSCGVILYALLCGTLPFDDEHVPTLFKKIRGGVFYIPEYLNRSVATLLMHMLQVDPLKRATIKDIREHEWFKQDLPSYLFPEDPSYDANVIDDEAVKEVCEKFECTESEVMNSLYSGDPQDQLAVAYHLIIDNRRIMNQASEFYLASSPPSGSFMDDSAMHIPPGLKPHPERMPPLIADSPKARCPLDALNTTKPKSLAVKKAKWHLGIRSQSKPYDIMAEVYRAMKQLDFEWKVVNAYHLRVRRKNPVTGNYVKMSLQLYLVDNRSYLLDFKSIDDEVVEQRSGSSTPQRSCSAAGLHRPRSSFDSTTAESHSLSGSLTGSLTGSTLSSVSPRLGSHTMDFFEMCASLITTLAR
Chain of Citron Rho-interacting kinase (Homo sapiens) (O14578 whole entry): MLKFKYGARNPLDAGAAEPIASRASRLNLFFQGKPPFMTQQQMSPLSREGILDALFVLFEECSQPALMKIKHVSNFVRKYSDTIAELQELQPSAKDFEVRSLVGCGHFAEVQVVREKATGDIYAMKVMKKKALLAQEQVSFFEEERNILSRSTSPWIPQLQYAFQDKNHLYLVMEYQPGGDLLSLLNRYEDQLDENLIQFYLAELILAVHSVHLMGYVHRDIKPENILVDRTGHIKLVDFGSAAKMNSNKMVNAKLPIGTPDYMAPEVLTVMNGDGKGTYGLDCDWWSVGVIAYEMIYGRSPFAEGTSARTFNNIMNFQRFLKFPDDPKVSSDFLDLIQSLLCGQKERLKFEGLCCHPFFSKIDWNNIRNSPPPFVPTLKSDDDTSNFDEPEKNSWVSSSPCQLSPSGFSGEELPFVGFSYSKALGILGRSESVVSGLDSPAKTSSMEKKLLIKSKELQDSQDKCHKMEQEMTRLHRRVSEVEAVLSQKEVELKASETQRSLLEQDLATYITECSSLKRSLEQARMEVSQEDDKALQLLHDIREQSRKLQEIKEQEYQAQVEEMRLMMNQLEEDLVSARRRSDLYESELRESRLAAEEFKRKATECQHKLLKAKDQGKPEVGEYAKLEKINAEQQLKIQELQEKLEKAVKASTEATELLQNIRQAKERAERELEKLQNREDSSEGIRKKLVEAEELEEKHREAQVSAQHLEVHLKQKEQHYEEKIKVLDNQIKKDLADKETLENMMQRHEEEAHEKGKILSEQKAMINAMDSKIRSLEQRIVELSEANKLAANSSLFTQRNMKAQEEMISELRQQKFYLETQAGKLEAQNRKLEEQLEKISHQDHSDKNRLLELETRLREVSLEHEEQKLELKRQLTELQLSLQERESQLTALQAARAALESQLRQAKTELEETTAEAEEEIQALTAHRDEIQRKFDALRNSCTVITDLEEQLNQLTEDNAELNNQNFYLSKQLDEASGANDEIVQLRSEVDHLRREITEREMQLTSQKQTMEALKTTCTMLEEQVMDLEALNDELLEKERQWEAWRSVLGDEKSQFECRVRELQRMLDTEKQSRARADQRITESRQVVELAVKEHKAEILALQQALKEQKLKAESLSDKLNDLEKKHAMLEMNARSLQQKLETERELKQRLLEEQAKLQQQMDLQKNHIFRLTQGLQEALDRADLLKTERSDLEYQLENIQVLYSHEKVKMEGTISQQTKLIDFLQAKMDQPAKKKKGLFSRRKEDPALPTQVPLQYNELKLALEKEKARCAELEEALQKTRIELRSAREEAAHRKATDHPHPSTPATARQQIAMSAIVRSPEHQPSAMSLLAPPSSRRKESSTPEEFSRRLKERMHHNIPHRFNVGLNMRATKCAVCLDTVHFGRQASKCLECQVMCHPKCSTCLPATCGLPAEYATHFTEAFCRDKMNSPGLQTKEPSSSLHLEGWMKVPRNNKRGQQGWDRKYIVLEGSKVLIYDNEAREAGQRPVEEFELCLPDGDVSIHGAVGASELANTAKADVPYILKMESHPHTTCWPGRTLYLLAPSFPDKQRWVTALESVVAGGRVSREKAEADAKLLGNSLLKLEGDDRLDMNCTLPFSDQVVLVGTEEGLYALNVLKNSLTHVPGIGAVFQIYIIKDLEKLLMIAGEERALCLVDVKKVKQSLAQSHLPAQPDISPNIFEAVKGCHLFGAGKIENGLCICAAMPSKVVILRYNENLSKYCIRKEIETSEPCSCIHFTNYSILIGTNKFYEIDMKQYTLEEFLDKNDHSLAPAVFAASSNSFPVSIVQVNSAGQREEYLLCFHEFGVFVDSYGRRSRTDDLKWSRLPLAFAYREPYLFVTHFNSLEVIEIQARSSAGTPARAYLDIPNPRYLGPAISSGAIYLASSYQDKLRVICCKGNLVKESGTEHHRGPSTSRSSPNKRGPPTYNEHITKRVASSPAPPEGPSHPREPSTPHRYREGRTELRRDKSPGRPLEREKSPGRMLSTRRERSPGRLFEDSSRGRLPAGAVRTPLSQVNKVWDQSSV

For `Cc1ccc(-c2ccc3c(ccc4sc5c(c43)NC[C@@H](C)NC5=O)n2)cn1`, the % of inhibition in assay [1] stood at 2%; in assay [2], 6%.
Consider `Cc1cc([C@@H](C)Nc2ccccc2C(=O)O)c2nc(N3CCOCC3)cc(=O)n2c1` [AZD-6482], for which the % of control in assay [3] stood at 86%.
For the molecule `CN(C)C/C=C/C(=O)Nc1ccc(C(=O)N2CCCC(Nc3ncc(Cl)c(-c4c[nH]c5ccccc45)n3)C2)cc1` (configuration not stated), the % of control in assay [4] was 98%.
Consider `Cn1cc(-n2cnc3c(NCc4nc5cc(Cl)c(Cl)cc5[nH]4)nc(N4CCOCC4)nc32)cn1`, for which the % of control in assay [5] was -0.279%.
In the case of `COCC(=O)NC/C=C/c1ccc2ncnc(Nc3ccc(Oc4ccc(C)nc4)c(C)c3)c2c1` [CP-724714], the % of control in assay [6] is 76%.
Regarding `O[C@H]1CC[C@H](Nc2ncc3nc(Nc4c(F)cc(F)cc4F)n([C@H]4CCOC4)c3n2)CC1`, the % of control in assay [7] is 100%.
